In PMC10599993, “The PTPN2/PTPN1 inhibitor ABBV-CLS-484 unleashes potent anti-tumour immunity” (Nature, 2023):

Experiments:
[1] = target: T1, Rsk2 (Homo sapiens, UniProt P51812); assay: biochemical; design: Kinase selectivity panel, IC50 of AC484 (Supplementary Table 1)
T1 construct: gene RPS6KA3

[2] = target: T2, TAK1-TAB1 (Homo sapiens, UniProt O43318); assay: biochemical; design: Kinase selectivity panel, IC50 of AC484 (Supplementary Table 1)
T2 construct: gene MAP3K7

[3] = target: ErbB2 (Homo sapiens, UniProt P04626); assay: biochemical; design: Kinase selectivity panel, IC50 of AC484 (Supplementary Table 1)
[4] = target: RIPK2 (Homo sapiens, UniProt O43353); assay: biochemical; design: Kinase selectivity panel, IC50 of AC484 (Supplementary Table 1)
[5] = target: T3, Aurora 2 (Homo sapiens, UniProt O14965); assay: biochemical; design: Kinase selectivity panel, IC50 of AC484 (Supplementary Table 1)
T3 construct: gene AURKA

[6] = target: GRK5 (Homo sapiens, UniProt P34947); assay: biochemical; design: Kinase selectivity panel, IC50 of AC484 (Supplementary Table 1)
[7] = target: T4, Prkcn (Homo sapiens, UniProt O94806); assay: biochemical; design: Kinase selectivity panel, IC50 of AC484 (Supplementary Table 1)
T4 construct: gene PRKD3
Protocol: (§1) Wide-range phosphatase, kinase and preclinical safety pharmacology off-target activity screens were conducted at Eurofins (Extended Data Table 5 and Supplementary Tables 1 and 2). A small phosphatase panel was developed at AbbVie to assess IC50 values on select phosphatases. The following enzymes used in the phosphatase selectivity panel were purchased from Eurofins: PTPN1 (PTP1B; 14–621), PTPN2 (TC-PTP; 14–646), PTPN9 (14–592), SHP1 (14–591) and SHP2 (14–622). The catalytic activity of the phosphatase was monitored using the small-molecule substrate DiFMUP (ThermoFisher) in a fluorescence assay format. In brief, the phosphatase reactions were performed at room temperature in the following assay buffer: 50 mM HEPES, pH 7.2, 100 mM NaCl, 1 mM EDTA, 0.005% Tween-20 and 5 mM TCEP. Each phosphatase was incubated with increasing concentrations of AC484 for 5 min, after which the substrate DiFMUP was added and incubated at 25 °C for 30 min. The final concentration of the enzyme and substrate was maintained at 0.5 nM and 5 μM, respectively, in all the assays. The reaction was then quenched by the addition of a 100 μM solution of bpV(Phen) (Enzo Life Sciences). The fluorescence signal was monitored using an Envision microplate reader (Perkin-Elmer) using excitation and emission wavelengths of 340 nm and 450 nm, respectively. The dose–response curves for the inhibitors were analysed using normalized IC50 regression curve fitting with control-based normalization. Supplementary file 41586_2023_6575_MOESM3_ESM.xlsx: Supplementary Table 1 AC484 kinase selectivity screen.

[8] = target: EGFR (Homo sapiens, UniProt P00533); assay: biochemical; design: Kinase selectivity panel, IC50 of AC484 (Supplementary Table 1)
Protocol: as §1

[9] = target: T5, PKA (Homo sapiens, UniProt P17612); assay: biochemical; design: Kinase selectivity panel, IC50 of AC484 (Supplementary Table 1)
T5 construct: gene PRKACA
Protocol: as §1

[10] = target: T6, PKAc beta (Homo sapiens, UniProt P22694); assay: biochemical; design: Kinase selectivity panel, IC50 of AC484 (Supplementary Table 1)
T6 construct: gene PRKACB
Protocol: as §1

[11] = target: T7, Abl (Homo sapiens, UniProt P00519); assay: biochemical; design: Kinase selectivity panel, IC50 of AC484 (Supplementary Table 1)
T7 construct: gene ABL1
Protocol: as §1

[12] = target: Plk4 (Homo sapiens, UniProt O00444); assay: biochemical; design: Kinase selectivity panel, IC50 of AC484 (Supplementary Table 1)
Protocol: as §1

[13] = target: TNK2 (Homo sapiens, UniProt Q07912); assay: biochemical; design: Kinase selectivity panel, IC50 of AC484 (Supplementary Table 1)
Protocol: as §1

[14] = target: BTK (Homo sapiens, UniProt Q06187); assay: biochemical; design: Kinase selectivity panel, IC50 of AC484 (Supplementary Table 1)
Protocol: as §1

[15] = target: STK33 (Homo sapiens, UniProt Q9BYT3); assay: biochemical; design: Kinase selectivity panel, IC50 of AC484 (Supplementary Table 1)
Protocol: as §1

[16] = target: T8, PKCdelta (Homo sapiens, UniProt Q05655); assay: biochemical; design: Kinase selectivity panel, IC50 of AC484 (Supplementary Table 1)
T8 construct: gene PRKCD
Protocol: as §1

[17] = target: Flt1 (Homo sapiens, UniProt P17948); assay: biochemical; design: Kinase selectivity panel, IC50 of AC484 (Supplementary Table 1)
Protocol: as §1

[18] = target: Gsk3b (Homo sapiens, UniProt P49841); assay: biochemical; design: Kinase selectivity panel, IC50 of AC484 (Supplementary Table 1)
Protocol: as §1

[19] = target: Wee1 (Homo sapiens, UniProt P30291); assay: biochemical; design: Kinase selectivity panel, IC50 of AC484 (Supplementary Table 1)
Protocol: as §1

[20] = target: LTK (Homo sapiens, UniProt P29376); assay: biochemical; design: Kinase selectivity panel, IC50 of AC484 (Supplementary Table 1)
Protocol: as §1

[21] = target: SIK1 (Homo sapiens, UniProt P57059); assay: biochemical; design: Kinase selectivity panel, IC50 of AC484 (Supplementary Table 1)
Protocol: as §1

[22] = target: Nek2 (Homo sapiens, UniProt P51955); assay: biochemical; design: Kinase selectivity panel, IC50 of AC484 (Supplementary Table 1)
Protocol: as §1

[23] = target: T9, PTPN1 (Homo sapiens, UniProt P18031); assay: mobility shift enzyme assay with labelled insulin receptor phosphopeptide (crystal with PTPN1 mentioned, data not shown); type: biochemical
T9 construct: full-length recombinant

Sequence of TNK2 (Q07912 whole entry): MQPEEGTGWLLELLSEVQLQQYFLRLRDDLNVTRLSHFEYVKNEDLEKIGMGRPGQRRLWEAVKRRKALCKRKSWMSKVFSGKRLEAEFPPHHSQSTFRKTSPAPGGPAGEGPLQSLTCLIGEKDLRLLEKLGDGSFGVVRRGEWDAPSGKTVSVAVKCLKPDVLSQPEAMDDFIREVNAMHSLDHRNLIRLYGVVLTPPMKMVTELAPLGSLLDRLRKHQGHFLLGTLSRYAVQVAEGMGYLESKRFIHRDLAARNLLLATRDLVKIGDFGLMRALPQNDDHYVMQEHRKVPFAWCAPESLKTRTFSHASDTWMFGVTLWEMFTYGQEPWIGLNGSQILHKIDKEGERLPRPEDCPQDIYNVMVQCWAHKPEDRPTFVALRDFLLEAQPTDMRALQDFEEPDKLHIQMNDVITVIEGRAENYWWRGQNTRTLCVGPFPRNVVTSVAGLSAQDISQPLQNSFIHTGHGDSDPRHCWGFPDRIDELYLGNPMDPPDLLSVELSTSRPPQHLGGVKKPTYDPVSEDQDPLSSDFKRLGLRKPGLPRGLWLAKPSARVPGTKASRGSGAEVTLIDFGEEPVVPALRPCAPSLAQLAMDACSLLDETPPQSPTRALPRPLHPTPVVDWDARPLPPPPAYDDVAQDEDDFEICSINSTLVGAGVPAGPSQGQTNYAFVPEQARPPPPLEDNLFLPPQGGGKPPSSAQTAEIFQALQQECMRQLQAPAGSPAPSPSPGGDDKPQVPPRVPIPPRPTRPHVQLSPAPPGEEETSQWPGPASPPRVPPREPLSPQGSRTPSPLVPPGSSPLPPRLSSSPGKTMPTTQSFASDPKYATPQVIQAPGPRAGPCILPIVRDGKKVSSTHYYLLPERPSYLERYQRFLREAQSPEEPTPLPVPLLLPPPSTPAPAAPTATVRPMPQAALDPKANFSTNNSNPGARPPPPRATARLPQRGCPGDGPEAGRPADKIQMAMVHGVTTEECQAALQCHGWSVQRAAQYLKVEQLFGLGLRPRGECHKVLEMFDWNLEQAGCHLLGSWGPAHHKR
Sequence of Nek2 (P51955 whole entry): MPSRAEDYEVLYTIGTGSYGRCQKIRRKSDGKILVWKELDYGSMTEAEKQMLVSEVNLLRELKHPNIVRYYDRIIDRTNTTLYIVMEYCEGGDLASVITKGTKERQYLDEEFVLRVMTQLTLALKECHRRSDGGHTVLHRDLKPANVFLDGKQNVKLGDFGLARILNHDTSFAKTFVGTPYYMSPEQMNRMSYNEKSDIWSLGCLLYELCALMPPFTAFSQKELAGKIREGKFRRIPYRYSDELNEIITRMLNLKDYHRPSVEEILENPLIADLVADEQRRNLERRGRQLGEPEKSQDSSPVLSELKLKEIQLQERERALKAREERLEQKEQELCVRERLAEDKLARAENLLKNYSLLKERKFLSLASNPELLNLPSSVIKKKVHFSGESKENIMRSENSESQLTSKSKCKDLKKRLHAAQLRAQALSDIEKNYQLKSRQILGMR
Sequence of BTK (Q06187 whole entry): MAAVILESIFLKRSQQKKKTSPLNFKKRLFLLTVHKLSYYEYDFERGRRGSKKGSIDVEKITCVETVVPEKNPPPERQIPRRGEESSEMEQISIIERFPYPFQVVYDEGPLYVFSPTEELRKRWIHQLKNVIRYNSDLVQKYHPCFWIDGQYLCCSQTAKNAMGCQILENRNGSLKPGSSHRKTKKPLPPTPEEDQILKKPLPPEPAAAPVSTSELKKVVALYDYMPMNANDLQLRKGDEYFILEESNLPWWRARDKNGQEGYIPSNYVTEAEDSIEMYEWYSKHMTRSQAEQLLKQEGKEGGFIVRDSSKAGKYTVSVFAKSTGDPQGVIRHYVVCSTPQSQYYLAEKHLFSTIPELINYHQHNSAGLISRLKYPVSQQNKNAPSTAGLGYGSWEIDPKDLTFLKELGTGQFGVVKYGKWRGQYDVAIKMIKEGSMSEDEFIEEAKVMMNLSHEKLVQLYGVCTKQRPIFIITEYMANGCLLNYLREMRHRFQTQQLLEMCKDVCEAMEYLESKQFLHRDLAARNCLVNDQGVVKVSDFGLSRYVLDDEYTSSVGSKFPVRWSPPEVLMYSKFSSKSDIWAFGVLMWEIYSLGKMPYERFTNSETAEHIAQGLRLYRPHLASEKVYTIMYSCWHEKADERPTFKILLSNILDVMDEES
Sequence of GRK5 (P34947 whole entry): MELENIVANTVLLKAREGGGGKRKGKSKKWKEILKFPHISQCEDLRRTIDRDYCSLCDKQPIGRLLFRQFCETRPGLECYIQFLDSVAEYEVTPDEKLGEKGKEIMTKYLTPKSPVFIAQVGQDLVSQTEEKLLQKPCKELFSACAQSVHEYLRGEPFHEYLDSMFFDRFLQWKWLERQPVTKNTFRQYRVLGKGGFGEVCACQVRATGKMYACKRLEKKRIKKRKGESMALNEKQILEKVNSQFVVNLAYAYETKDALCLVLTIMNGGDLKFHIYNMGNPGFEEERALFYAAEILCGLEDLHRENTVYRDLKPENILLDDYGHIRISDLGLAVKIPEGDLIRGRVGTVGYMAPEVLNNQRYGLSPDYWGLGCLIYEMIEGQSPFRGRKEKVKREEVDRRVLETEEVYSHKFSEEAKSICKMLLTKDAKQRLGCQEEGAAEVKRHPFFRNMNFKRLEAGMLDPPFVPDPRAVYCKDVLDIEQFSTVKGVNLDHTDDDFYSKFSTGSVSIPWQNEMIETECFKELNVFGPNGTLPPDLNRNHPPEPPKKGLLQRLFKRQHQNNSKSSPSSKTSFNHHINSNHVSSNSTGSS
Sequence of SIK1 (P57059 whole entry): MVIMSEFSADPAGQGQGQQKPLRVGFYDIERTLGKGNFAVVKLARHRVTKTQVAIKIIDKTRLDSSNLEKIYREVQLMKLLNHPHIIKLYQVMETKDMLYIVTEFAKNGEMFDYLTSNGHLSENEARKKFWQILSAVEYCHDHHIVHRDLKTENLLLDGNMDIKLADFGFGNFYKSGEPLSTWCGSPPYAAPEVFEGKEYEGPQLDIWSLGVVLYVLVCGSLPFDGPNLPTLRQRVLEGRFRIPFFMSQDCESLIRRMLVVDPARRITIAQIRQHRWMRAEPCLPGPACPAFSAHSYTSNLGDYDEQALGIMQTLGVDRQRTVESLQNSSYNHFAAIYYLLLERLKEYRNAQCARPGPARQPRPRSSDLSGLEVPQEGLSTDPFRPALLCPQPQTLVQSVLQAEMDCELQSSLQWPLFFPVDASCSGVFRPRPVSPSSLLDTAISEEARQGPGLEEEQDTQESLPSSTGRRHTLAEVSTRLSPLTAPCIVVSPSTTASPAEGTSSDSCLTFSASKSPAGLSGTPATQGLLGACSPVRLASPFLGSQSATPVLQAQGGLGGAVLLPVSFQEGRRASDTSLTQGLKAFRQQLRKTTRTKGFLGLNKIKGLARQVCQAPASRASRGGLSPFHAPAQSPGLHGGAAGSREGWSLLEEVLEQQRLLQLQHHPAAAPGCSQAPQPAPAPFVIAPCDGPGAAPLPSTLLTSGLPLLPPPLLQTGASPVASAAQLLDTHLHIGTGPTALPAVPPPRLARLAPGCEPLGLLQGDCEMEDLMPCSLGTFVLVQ
T3 sequence (O14965 whole entry): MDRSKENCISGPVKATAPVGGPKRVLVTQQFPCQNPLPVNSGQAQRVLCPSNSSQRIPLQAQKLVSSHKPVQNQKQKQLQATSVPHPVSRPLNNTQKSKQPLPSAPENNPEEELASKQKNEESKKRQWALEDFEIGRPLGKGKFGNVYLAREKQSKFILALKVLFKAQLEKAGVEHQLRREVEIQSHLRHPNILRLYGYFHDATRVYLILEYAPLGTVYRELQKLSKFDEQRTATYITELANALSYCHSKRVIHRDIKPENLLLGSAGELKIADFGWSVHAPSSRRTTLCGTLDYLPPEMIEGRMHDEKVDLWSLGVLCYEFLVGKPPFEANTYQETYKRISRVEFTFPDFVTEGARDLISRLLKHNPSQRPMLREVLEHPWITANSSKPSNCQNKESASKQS
Sequence of Gsk3b (P49841 whole entry): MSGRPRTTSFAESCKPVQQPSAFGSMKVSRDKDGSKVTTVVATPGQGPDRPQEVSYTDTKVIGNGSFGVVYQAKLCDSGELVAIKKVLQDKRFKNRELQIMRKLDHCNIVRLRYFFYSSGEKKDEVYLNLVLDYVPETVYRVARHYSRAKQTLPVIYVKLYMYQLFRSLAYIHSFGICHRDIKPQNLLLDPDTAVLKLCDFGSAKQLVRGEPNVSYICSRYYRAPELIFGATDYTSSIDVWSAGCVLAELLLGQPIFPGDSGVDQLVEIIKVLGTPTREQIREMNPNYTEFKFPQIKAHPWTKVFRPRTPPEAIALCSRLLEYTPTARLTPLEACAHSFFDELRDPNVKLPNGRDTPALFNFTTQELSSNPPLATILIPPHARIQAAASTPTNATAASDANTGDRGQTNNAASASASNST
T8 sequence (Q05655 whole entry): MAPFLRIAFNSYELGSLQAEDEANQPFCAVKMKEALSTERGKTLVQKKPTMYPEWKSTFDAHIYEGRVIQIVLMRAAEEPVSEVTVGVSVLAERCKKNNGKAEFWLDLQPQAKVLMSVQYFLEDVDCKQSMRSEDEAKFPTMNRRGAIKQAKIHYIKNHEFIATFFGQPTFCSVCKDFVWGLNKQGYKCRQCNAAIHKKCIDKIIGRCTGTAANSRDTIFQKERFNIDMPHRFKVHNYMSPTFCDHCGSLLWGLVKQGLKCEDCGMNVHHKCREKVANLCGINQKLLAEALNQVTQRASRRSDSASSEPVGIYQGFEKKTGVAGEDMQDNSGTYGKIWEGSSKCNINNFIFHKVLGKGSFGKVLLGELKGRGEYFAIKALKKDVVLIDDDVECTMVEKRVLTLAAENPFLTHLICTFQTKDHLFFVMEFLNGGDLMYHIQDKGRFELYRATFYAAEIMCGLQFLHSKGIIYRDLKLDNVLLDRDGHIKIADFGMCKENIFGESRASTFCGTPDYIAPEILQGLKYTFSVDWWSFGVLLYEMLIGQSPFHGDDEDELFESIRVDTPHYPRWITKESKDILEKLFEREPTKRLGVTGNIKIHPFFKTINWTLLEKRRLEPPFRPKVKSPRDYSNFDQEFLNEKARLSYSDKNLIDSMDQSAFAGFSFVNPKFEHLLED

In the case of `CC(C)CCN[C@@H]1CCc2cc(O)c(N3CC(=O)NS3(=O)=O)c(F)c2C1` [AC484, ABBV-CLS-484], the IC50 [1] is reported as > 10 µM, the IC50 [2] is reported as > 10 µM and the IC50 [3] is reported as > 10 µM. The IC50 [4] was > 10 µM, the IC50 [5] was > 10 µM and the IC50 [6] was > 10 µM. For the same compound, the IC50 [7] was > 10 µM, the IC50 [8] was > 10 µM and the IC50 [9] was > 10 µM. For the same compound, the IC50 [10] was > 10 µM, the IC50 [11] was > 10 µM and the IC50 [12] was > 10 µM. The IC50 [13] was > 10 µM, the IC50 [14] was > 10 µM and the IC50 [15] was > 10 µM. The IC50 [16] was > 10 µM, the IC50 [17] was > 10 µM and the IC50 [18] was > 10 µM. For the same compound, the IC50 [19] was > 10 µM, the IC50 [20] was > 10 µM and the IC50 [21] was > 10 µM. For the same compound, the IC50 [22] was > 10 µM and the IC50 [23] was 0.0025 µM.
